Legend:
[1] = tested on: mitochondrial ATP synthase; assay: ATP synthesis (oxygen consumption, Seahorse XF96) in fresh heart mitochondria; type: biochemical, mouse; settings: Complex I or Complex II substrates (FIG. 1, FIG. 2)
Description: (§1) To assess whether the fraction of synthetic and reverse hydrolytic activities of mitochondrial ATP synthase can be measured in the same preparation, a protocol was developed to monitor changes in oxygen consumption and proton release in response to changes in mitochondrial ATP synthase activity. The proton released and the concomitant changes in the pH can be monitored using the ECAR (extracellular acidification) channel in the Agilent Seahorse XF analyzer using isolated mitochondria, to ensure that the changes in pH cannot be attributed to glycolysis or other contributors to ECAR.
Mice were anesthetized with isoflurane followed by a cervical dislocation, and the heart was immediately removed and placed in ice cold relaxation buffer (5 mM sodium pyrophosphate, 100 mM KCl, 5 mM EGTA, 5 mM HEPES; pH 7.4). […] The mitochondrial pellets were re-suspended in ice cold HES buffer and mitochondrial protein was measured with a BCA assay (Pierce). […]
Oxygen consumption was measured in isolated fresh intact mitochondria from mouse heart, as oxygen consumption is linked to maximal ATP synthesis and proton release when mitochondria are respiring either in the presence of substrates and ADP (ATP synthesizing mitochondria or state 3) or in the presence of substrates but not ADP (state 4). […]

[2] = tested on: mitochondrial ATP synthase; assay: ATP hydrolysis (acidification, Seahorse XF96) in fresh heart mitochondria; type: biochemical, mouse; settings: fresh heart mitochondria (FIG. 1, FIG. 2)
Description: as §1
Mice were anesthetized with isoflurane followed by a cervical dislocation, and the heart was immediately removed and placed in ice cold relaxation buffer (5 mM sodium pyrophosphate, 100 mM KCl, 5 mM EGTA, 5 mM HEPES; pH 7.4). The heart was squeezed with tweezers to remove blood, minced with scissors, and then placed in a glass-glass Dounce homogenizer with 3 mL of HES homogenization buffer (250 mM sucrose, 5 mM HEPES, 1 mM EDTA; pH to 7.2, adjusted with KOH). The heart tissue was homogenized first with the loose pestle and followed by the tight pestle. The homogenized tissue was placed in a pre-chilled 15 mL conical tube and centrifuged at 900×g (4° C.) for 10 minutes (min). The supernatant was removed, placed in a new tube and centrifuged again at 900×g for 10 min. The supernatant was then transferred to 2 mL microcentrifuge tubes and centrifuged at 10,000×g (4° C.) for 10 min. The mitochondrial pellets were re-suspended in ice cold HES buffer and mitochondrial protein was measured with a BCA assay (Pierce). The concentrated mitochondrial pellet was stored on ice. […]
ATP hydrolysis capacity or state 4 acidification was measured using Seahorse XF96 as described in Divakaruni et al. (2018) Anal Biochem 552:60-65 and Acin-Perez et al. (2021) Life 11(9):949, in MAS (70 mM Sucrose, 220 mM Mannitol, 5 mM KH2PO4, 5 mM MgCl2, 1 mM EGTA, 2 mM HEPES; pH 7.2). […]

SMILES | ATP synthesis [1] | ATP hydrolysis [2]
CN1C(=O)CC[C@@]2(C)C1=CCC1C2[C@@H](O)C[C@@]2(C)C1CC[C@@H]2NC(=O)C1CC1 (stereo partly drawn) [Compound 26, N-((4aR,5S,6aS,7S)-5-hydroxy-1,4a,6a-trimethyl-2-oxo-2,3,4,4a,4b,5,6,6a,7,8,9,9a,9b,10-tetradecahydro-1H-indeno[5,4-f]quinolin-7-yl)cyclopropanecarboxamide] | decreased ATP synthesis at the highest concentration | only mild changes in hydrolysis
CNC(=O)[C@H]1CCC2C3CC=C4N(C)C(=O)CC[C@]4(C)C3[C@@H](O)C[C@@]21C (stereo partly drawn) [Compound 40, (4aR,5S,6aS)-5-hydroxy-N,1,4a,6a-tetramethyl-2-oxo-2,3,4,4a,4b,5,6,6a,7,8,9,9a,9b,10-tetradecahydro-1H-indeno[5,4-f] quinoline-7-carboxamide] | – | only mild changes in hydrolysis

Reference: patent US20240270786A1, “STEROID COMPOUNDS” (Epirium Bio Inc., priority 2022, published 2024)
